In ChEMBL document CHEMBL1127723, “Tetrahydroisoquinoline derivatives with AT2-specific angiotensin II reception binding inhibitory activity” (Bioorg Med Chem Lett, 1994):

Tested on: Type-2 angiotensin II receptor (Oryctolagus cuniculus); call rule not given here
Test: Inhibitory activity against angiotensin II type 2 (AT2) receptor in rabbit uterine membranes at 10e-6 M; not active

IC50: Not Active
Compound: COc1ccc2c(c1O)CC(C(=O)O)N(C(=O)N(C)c1ccccc1)C2 (stereo unspecified)
